Test results from ChEMBL document CHEMBL1177756, “Design and synthesis of 1,4,5,6-tetrahydropyrrolo[3,4-c]pyrazoles and pyrazolo[3,4-b]pyridines for Aurora-A kinase inhibitors” (Bioorg Med Chem Lett, 2010).

Assays:
Type in all cases: functional, cell-based
HCT-116 = experiment: Cytotoxicity against human HCT116 cells after 48 hrs by MTT assay; details: HCT-116, 48 h
A549 = experiment: Cytotoxicity against human A549 cells after 48 hrs by MTT assay; details: A549, 48 h
A2780 = experiment: Cytotoxicity against human A2780 cells after 48 hrs by MTT assay; details: A2780, 48 h

Compound | IC50 (HCT-116) | IC50 (A549) | IC50 (A2780)
Cc1ccc(C(=O)Nc2n[nH]c3c2CN(C(=O)c2ccccn2)C3)cc1 | > 200 µM | > 200 µM | > 200 µM
CC(=O)N1Cc2[nH]nc(NC(=O)c3ccc4ccccc4c3)c2C1 | > 200 µM | > 200 µM | > 200 µM
Cc1ccccc1C(=O)Nc1n[nH]c2ncc(Br)cc12 | 51.5 µM | > 200 µM | > 200 µM
COc1cc(OC)cc(C(=O)Nc2n[nH]c3c2CN(C(=O)c2ccccn2)C3)c1 | 236 µM | > 200 µM | > 200 µM
O=C(Nc1n[nH]c2c1CN(C(=O)[C@@H](O)c1ccccc1)C2)c1ccc2c(c1)OCO2 | 135 µM | 84 µM | > 200 µM
CO[C@H](C(=O)N1Cc2[nH]nc(NC(=O)c3ccc4c(c3)OCO4)c2C1)c1ccccc1 | > 200 µM | > 200 µM | > 200 µM
O=C(Nc1n[nH]c2c1CN(C(=O)c1ccccn1)C2)c1ccc2c(c1)OCO2 | > 200 µM | 118 µM | > 200 µM
O=C(Nc1n[nH]c2ncc(Br)cc12)c1cc(Cl)cc(Cl)c1 | 49.2 µM | > 200 µM | > 200 µM
COc1cc(OC)cc(C(=O)Nc2n[nH]c3ncc(Br)cc23)c1 | 19.3 µM | 53.7 µM | 37.9 µM
CC(=O)c1ncccc1N1Cc2[nH]nc(NC(=O)c3ccc4c(c3)OCO4)c2C1 | > 200 µM | > 200 µM | > 200 µM
CO[C@H](C(=O)N1Cc2[nH]nc(NC(=O)c3ccc4ccccc4c3)c2C1)c1ccccc1 | 38 µM | 16 µM | 23 µM
O=C(Nc1n[nH]c2ncc(Br)cc12)c1ccc(C(F)(F)F)cc1 | 21.9 µM | > 200 µM | > 200 µM
O=C(Nc1n[nH]c2ncc(Br)cc12)c1ccc(F)cc1 | 44.1 µM | > 200 µM | 50 µM
COc1ccc(C(=O)Nc2n[nH]c3ncc(Br)cc23)cc1 | 24.9 µM | > 200 µM | > 200 µM
COc1ccccc1C(=O)Nc1n[nH]c2ncc(Br)cc12 | 15.6 µM | > 200 µM | 27 µM
O=C(Nc1n[nH]c2ncc(Br)cc12)c1ccccc1C(F)(F)F | 40.3 µM | 75.1 µM | > 200 µM
Cc1ccc(C(=O)Nc2n[nH]c3c2CN(C(=O)[C@@H](O)c2ccccc2)C3)cc1 | 13 µM | 42 µM | 82 µM
CO[C@H](C(=O)N1Cc2[nH]nc(NC(=O)c3ccco3)c2C1)c1ccccc1 | > 200 µM | > 200 µM | > 200 µM
Cc1ccc(C(=O)N2Cc3[nH]nc(NC(=O)c4ccco4)c3C2)cc1 | > 200 µM | > 200 µM | > 200 µM
CC(=O)O[C@H](C(=O)N1Cc2[nH]nc(NC(=O)c3cc4c(c(OCc5ccccc5)c3)OCO4)c2C1)c1ccccc1 | > 200 µM | > 200 µM | > 200 µM
O=C(Nc1n[nH]c2c1CN(C(=O)[C@@H](O)c1ccccc1)C2)c1ccco1 | 4 µM | 25 µM | 35 µM

Compound | IC50 (HCT-116) | IC50 (A549) | IC50 (A2780)
O=C(Nc1n[nH]c2ncc(Br)cc12)c1ccccc1Cl | 32.3 µM | > 200 µM | 46.7 µM
COc1ccc(C(=O)Nc2n[nH]c3c2CN(C(=O)c2ccccn2)C3)cc1 | > 200 µM | > 200 µM | > 200 µM
COc1cc(OC)cc(C(=O)Nc2n[nH]c3c2CN(C(=O)[C@@H](OC)c2ccccc2)C3)c1 | 103 µM | 99 µM | > 200 µM
Cc1ccc(C(=O)Nc2n[nH]c3ncc(Br)cc23)cc1 | 39.8 µM | > 200 µM | > 200 µM
Cc1cccc(C(=O)Nc2n[nH]c3ncc(Br)cc23)c1 | 25.5 µM | > 200 µM | 49.9 µM
O=C(Nc1n[nH]c2ncc(Br)cc12)c1ccc(Cl)cc1 | 34.7 µM | 51.4 µM | 51.6 µM
O=C(Nc1n[nH]c2ncc(Br)cc12)c1ccco1 | 43.5 µM | 61.9 µM | 42 µM
O=C(Cc1ccc(Br)cc1)Nc1n[nH]c2ncc(Br)cc12 | 31.7 µM | 43.1 µM | 22.8 µM
COc1cc(OC)cc(C(=O)Nc2n[nH]c3c2CN(C(=O)[C@@H](O)c2ccccc2)C3)c1 | 143 µM | 76 µM | > 200 µM
COc1cc(OC)cc(C(=O)Nc2n[nH]c3c2CN(c2cccnc2C(C)=O)C3)c1 | 107 µM | 161 µM | > 200 µM
CC(=O)c1ncccc1N1Cc2[nH]nc(NC(=O)c3ccccc3)c2C1 | 168 µM | 175 µM | > 200 µM
CO[C@H](C(=O)N1Cc2[nH]nc(NC(=O)c3cc4c(c(OCc5ccccc5)c3)OCO4)c2C1)c1ccccc1 | > 200 µM | > 200 µM | > 200 µM
Cc1cccnc1C(=O)Nc1n[nH]c2ncc(Br)cc12 | 23 µM | > 200 µM | > 200 µM
O=C(Nc1n[nH]c2ncc(Br)cc12)c1ccccn1 | 14.3 µM | 45.2 µM | 46.5 µM
CO[C@H](C(=O)N1Cc2[nH]nc(NC(=O)c3ccccc3)c2C1)c1ccccc1 | 26 µM | > 200 µM | > 200 µM
O=C(Nc1n[nH]c2c1CN(C(=O)c1ccco1)C2)c1ccc2ccccc2c1 | 45 µM | 34 µM | 54 µM
Cc1ccc(C(=O)N2Cc3[nH]nc(NC(=O)c4ccc5ccccc5c4)c3C2)cc1 | > 200 µM | > 200 µM | > 200 µM
O=C(Nc1n[nH]c2c1CN(C(=O)c1ccccn1)C2)c1cc2c(c(OCc3ccccc3)c1)OCO2 | 104 µM | > 200 µM | > 200 µM
COc1ccc(C(=O)Nc2n[nH]c3c2CN(C(=O)[C@@H](OC)c2ccccc2)C3)cc1 | 207 µM | 72 µM | > 200 µM
CO[C@H](C(=O)N1Cc2[nH]nc(NC(=O)c3ccc(N4CCN(C)CC4)cc3)c2C1)c1ccccc1 | 13 µM | 43 µM | 11 µM
